The source of these data is US20250179509A1, “NATIVE DELIVERY OF BIOMOLECULES INTO PLANT CELLS USING IONIC COMPLEXES WITH CELL-PENETRATING PEPTIDES” (BASF Plant Science Company GmbH, priority 2018, published 2025).

One data set concerns 5-day callus cell. Nature of the data set: Western blot quantification of Citrine extracted from rice callus. It counts as cell-based, Oryza sativa, cv. Nipponbare. To be noted: 72-hour post-infiltration, with vacuum and pressure treatment, area intensity compared with positive control. The procedure:
(§1) 10 mg rice callus (5-day or 21-day) was immersed in 100 μL of fresh prepared complex solutions in a screw cap tube. Subsequently depressurized the solution at −0.08 MPa for 1 min and compressed at +0.08 MPa for 1 min. After this treatment, the callus was transferred onto the N6D medium, and incubated at 30° C. in the dark until use.
Confocal laser scanning microscopy (CLSM, ZeissLSM 700, Carl Zeiss, Oberkochen, Germany) was used to evaluate the intracellular uptake of CPP-FP-Citrine every 24 hours. Before the observation by CLSM, the callus on N6D was transferred into a 1.5 mL Eppendorf tube and washed thoroughly with Milli-q water contains 0.1% tween 20 for five times to remove the Citrine on cell surface. […] CPP-FP-Citrine was detected by setting the excitation at 488 nm and emission in a range of 505-600 nm. For distinguish plasma membrane region and cytoplasm region, the callus was additionally incubated with FM4-64 (20 µM, 20 min at RT) for cell membrane stain, and detected by setting the excitation at 405 nm and emission at 560-700. Furthermore, quantification of the intracellular Citrine by western blot immunoassay. […]
We next quantified the Citrine from the cell extraction by western blot. […] As controls, the samples with infiltration of Milli-q water and Citrine only without vacuum and pressure treatment were also analyzed (FIG. 7a). […]

Data set [1] is described as follows: Secondary structure contents of peptides (DichroWeb analysis). It counts as physicochemical. Conditions: various solvents, reducing or non-reducing conditions. As for the experimental part:
FIG. 20: Secondary structure contents of BPCH7, BPLH7, and BPKH in various solvents (reducing or non-reducing conditions). Analysis was performed using DichroWeb (CONTIN, dataset 4).

In a further data set the test system is rice callus cells. The experiment in a line: CLSM observation of intracellular uptake and distribution of Citrine after vacuum/pressure infiltration. Conditions: for distribution of Citrine in callus cell: 5-day callus cell, 72-hours incubation, FM 4-64 stain, 3D images and optical sections. The format is cell-based, Oryza sativa, cv. Nipponbare. As for the experimental part:
Mature dry seeds of Oryza sativa, cv. Nipponbare (O. sativa) were surface-sterilized with 70% ethanol (v/v) for 1 min, followed by 30 min in 50% (v/v) commercial bleach with rotation at 20 rpm. Seeds were then washed 8-10 times with sterile distilled water and dried on autoclaved Kimwipes (3 mm) for 5 min. For callus induction, sixteen seeds were inoculated petri plate on callus induction medium (N6D) and incubated at 30° C. with continuous light in a plant bio-incubator (TOMY CLE-303 cultivation chamber Tokyo, Japan). N6D was prepared using basal 30 g/L […], 0.3 g/L casamino acid, 2.8 g/L L-proline, 2 mg/L 2,4-dichlorophenoxyacetic acid (2,4-D), 4.0 g/L CHO (N6) basal salt mix, gelled with 4 g/L phytagel and pH adjusted to 5.8 before autoclaving. After 5-day cultivation, the callus was cut into approximately four equal parts. This callus was used as the 5-day callus in this work. On the other hand, after 21-day cultivation, the self-shedding callus was collected and used as the 21-day callus. For the callus regeneration test, the callus was cut to small pieces in different sizes, then transferred onto a regeneration medium and incubated at 30° C. with continuous light for 7 days. […] The regeneration medium was prepared based on using 4 g/L MS powder with vitamin, supplied with 30 g/L sorbitol, 30 g/L sucrose, 4 g/L casamino acid, 2 mg/L 2,4-D and 2 mg/L 1-Naphthaleneacetic acid (NAA), gelled with 4 g/L phytagel and pH was adjusted to 5.8 before autoclaving. The chemicals used in this research are purchased from Sigma (Sigma-Aldrich, MO, USA) and Wako (Wako, Pure Chemical, Tokyo, Japan).
as §1
Confocal laser scanning microscopy (CLSM, ZeissLSM 700, Carl Zeiss, Oberkochen, Germany) was used to evaluate the intracellular uptake of CPP-FP-Citrine every 24 hours. Before the observation by CLSM, the callus on N6D was transferred into a 1.5 mL Eppendorf tube and washed thoroughly with Milli-q water contains 0.1% tween 20 for five times to remove the Citrine on cell surface. Thereafter, the callus was cut into tiny pieces and mounted on glass slides, then covered with coverslips. CPP-FP-Citrine was detected by setting the excitation at 488 nm and emission in a range of 505-600 nm. For distinguish plasma membrane region and cytoplasm region, the callus was additionally incubated with FM4-64 (20 µM, 20 min at RT) for cell membrane stain, and detected by setting the excitation at 405 nm and emission at 560-700. Furthermore, quantification of the intracellular Citrine by western blot immunoassay. After 72-hour post-infiltration, the protein was extracted from rice callus. The rice callus was frozen with liquid nitrogen, and then grinding in a mortar into powder. 50 μl of 10 mM Tris-HCL buffer (pH 7.4) containing 10 μL Halt protease inhibitor cocktail (Thermo Scientific, MA, USA) was added to 0.1 g callus powder, mixed well and incubated on ice for 1 hour. After centrifuge at […], 4° C. for 20 min, the supernatant was collected and used as the cell extraction. 10 μL of the cell extraction was subjected to a 4-20% sodium dodecyl sulfate polyacrylamide electrophoresis gels (SDS-PAGE, Bio-Rad, California, USA). Proteins were then transferred onto a PVDF membranes (Bio-Rad, California, USA) using a semi-dry transfer cell (Bio-Rad, California, USA) at 10 V for 1 hour. The immunodetection of Citrine was performed with a rabbit polyclonal antibody (GFP antibody NB600-308, Novus Biologicals, Co, USA, dilution to 1:2000). IgG goat anti-rabbit antibody conjugated with horse radish peroxidase was used as a secondary antibody (goat anti-rabbit IgG H&L HRP ab6789, Abcam, Cambridge, UK, dilution to 1:20000). […]

In the next data set the test system is rice cells. Nature of the data set: Delivery of DNA into rice cells by linear versus cyclic peptide. It counts as cell-based. As for the experimental part:
BP2 is a cyclic peptide due to its disulphide bond between the two cysteins. This structure improve binding to proteins, peptides and DNA and improves cell survival (reduced cell toxicity) and regeneration. These advantages of the cyclic structure were analysed by studying a linear, non-cyclic, version of BP2 with regards to its potential to delivery.

For a further data set, the system named is rice callus. The experiment in a line: Delivery of dsRed plasmid DNA into rice callus and dsRed expression. It counts as cell-based. To be noted: dsRed plasmid DNA (SEQ ID NO: 1) combined with peptide, after 4 days. The procedure:
CPP (BP100 KH9) and dsRed plasmid DNA (Seq ID NO: 1) or Cy3 labelled PNA (peptide nucleic acid) (1:10 molar ratio) were mixed together and incubated for 30 minutes at 4° C. After incubation the volume was made up to 100 μl with water.
Callus from 5-7 days old rice seeds were used for the experiments. To 10 mg of callus, CPP/DNA or CPP/PNA mixture was added and vacuum infiltrated for 15 mins, washed with distilled water and plated on N6 medium.

With “KKLFKKILKYLHHCRGHTVHSHHHCIR (BP2 amino acid sequence, synthetic) [BP100CH7]”, the Citrine delivered in the data set with 5-day callus cell was 0.043 ng/mg callus. Further, the secondary structure entry in data set [1] (listed as BP2) is “higher helix and strand order”. Besides, in the data set with rice callus cells, the “distribution of Citrine in callus cell” value was “located in cell membrane and the cytoplasm regions of the cells”. The “Citrine fluorescence inside of the cells observed, time after infiltration” value with rice callus cells (5-day callus cells, P/C ratio of 100) worked out at 72 h.
For “KKLFKKILKYLHHCRGHTVHSHHHCIR [LH7, linear, non-cyclic version of BP2, reference compound]”, in data set [1], the secondary structure result is “higher degree of unordered structure”. The “activity in delivery DNA into rice cells” value in the data set on rice cells is listed as “significantly lower activity”.
As to “KKLFKKILKYLKHKHKHKHKHKHKHKHKH (BP1 amino acid sequence, synthetic) [BP100 (KH)9]”, the Citrine delivered in the data set on 5-day callus cell was found to be 0.042 ng/mg callus. In data set [1], the secondary structure result is “higher helix and strand order”. Besides, the “dsRed expression (red fluorescence)” value in the data set with rice callus is reported as “visible red fluorescence”. Besides, the “distribution of Citrine in callus cell” value in the data set on rice callus cells was “located in cell membrane and the cytoplasm regions of the cells”. Also, in the data set with rice callus cells (5-day callus cells, P/C ratio of 1), the “Citrine fluorescence inside of the cells observed, time after infiltration” value stood at 72 h. The “Citrine fluorescence inside of the cells first observed, time after infiltration” value with rice callus cells (5-day callus cells, P/C ratio of 10) is 48 h. The “Citrine florescence observed, time after infiltration” value with rice callus cells (21-day rice callus, P/C ratio of 10) amounted to 48 h.
